Read-outs that look alike come from different tables or passages of the source.
Assays:
[1] = test system: 3NACP (Clostridium perfringens NA); format: binding; details: 0.3 mU/mL 3NACP
[2] = test system: 3NACP (Clostridium perfringens NA); format: biochemical; details: 3 mU/mL 3NACP; 1 μM inhibitor vs without
[3] = test system: H3N2 NA; format: biochemical, influenza H3N2

Structure (SMILES) | adsorption response of GCE-H3 to 3NACP (Normalized RCT) with inhibitor ([1]; 0.1 μM inhibitor, vs 0 μM) | adsorption response of GCE-H3 to 3NACP (Normalized RCT) with inhibitor ([1]; 1 μM inhibitor) | impedimetric response of AuE-H3 to 3NACP (1/Normalized RCT) with inhibitor [2] | inhibition effect on enzymatic response of AuE-H3 to H3N2 NA (normalized RCT) [3]
CCOC(=O)C1=C[C@@H](OC(CC)CC)[C@H](NC(C)=O)[C@@H](N)C1 [Oseltamivir] | lower adsorption response | further decrease in response | decrease in response | weak inhibition effect
CC(=O)N[C@H]1[C@H]([C@H](O)[C@H](O)CO)OC(C(=O)O)=C[C@@H]1N=C(N)N [Zanamivir] | – | – | – | strongest effect
CCC(CC)[C@H](NC(C)=O)[C@@H]1[C@H](O)[C@@H](C(=O)O)C[C@H]1N=C(N)N [Peramivir] | – | – | – | moderate inhibition effect
